Assay results as given in US10231967B2, “Compounds and their use as BACE inhibitors” (ASTRAZENECA AB, priority 2010, dated 2019).

What follows are compounds tested on sAPPβ release in SH-SY5Y cells (assay: sAPPβ release assay). Settings: Homo sapiens, SH-SY5Y, 17 h, compounds incubated 17 h, MSD detection.
Format: cell-based
Experimental: Thaw cells and seed at a conc. of around 10000 cells/well in DMEM/F-12 with Glutamax, 10% FCS and 1% non-essential amino acids to a 384-well tissue culture treated plate, 100 μL cell susp/well. […] The cell medium was removed, followed by addition of 30 μL compound diluted in DMEM/F-12 with Glutamax, 10% FCS, 1% non-essential amino acids and 1% PeSt to a final conc. of 1% DMSO. The compounds were incubated with the cells for 17 h (overnight) at 37° C., 5% CO2. Meso Scale Discovery (MSD) plates were used for the detection of sAPPβ release. MSD sAPPβ plates were blocked in 1% BSA in Tris wash buffer (40 μL/well) for 1 h on shake at r.t. and washed 1 time in Tris wash buffer (40 μL/well). 20 μL of medium was transferred to the pre-blocked and washed MSD sAPPβ microplates, and the cell plates were further used in an ATP assay to measure cytotoxicity. The MSD plates were incubated with shaking at r.t. for 2 h and the media discarded. 10 μL detection antibody was added (1 nM) per well followed by incubation with shaking at r.t. for 2 h and then discarded. 40 μL Read Buffer was added per well and the plates were read in a SECTOR Imager.

Row | Compound | IC50 [nM]
1 | CC1=NC2(N=C1N)c1cc(Br)ccc1CC21CCC(F)(F)CC1 (stereo not drawn) [Example 27, 6′-Bromo-4,4-difluoro-5″-methyl-3′H-dispiro[cyclohexane-1,2′-indene-1′,2″-imidazol]-4″-amine] | 399
2 | CC1=N[C@]2(C[C@@H]([C@@H]3CCCOC3)Oc3ccc(-c4cccc(Cl)c4)cc32)N=C1N [Example 48 Isomer 1, (2S,4R)-6-(3-chlorophenyl)-5′-methyl-2-[(3R)-tetrahydro-2H-pyran-3-yl]-2,3-dihydrospiro[chromene-4,2′-imidazol]-4′-amine] | 20
3 | CC1=N[C@]2(C[C@H]([C@H]3CCCOC3)Oc3ccc(-c4cccc(Cl)c4)cc32)N=C1N [Example 48 Isomer 4, (2R,4R)-6-(3-chlorophenyl)-5′-methyl-2-[(3 S)-tetrahydro-2H-pyran-3-yl]-1′,2,3,3′-tetrahydrospiro[chromene-4,2′-imidazol]-4′-amine] | 689
4 | CC1=N[C@]2(C[C@H]([C@@H]3CCCOC3)Oc3ccc(-c4cccc(Cl)c4)cc32)N=C1N [Example 48 Isomer 7, (2R,4R)-6-(3-chlorophenyl)-5′-methyl-2-[(3R)-tetrahydro-2H-pyran-3-yl]-1′,2,3,3′-tetrahydrospiro[chromene-4,2′-imidazol]-4′-amine] | 191
5 | CC1=N[C@]2(C[C@@H]([C@H]3CCCOC3)Oc3ccc(-c4cccc(Cl)c4)cc32)N=C1N [Example 48 Isomer 8, (2S,4R)-6-(3-chlorophenyl)-5′-methyl-2-[(3S)-tetrahydro-2H-pyran-3-yl]-1′,2,3,3′-tetrahydrospiro[chromene-4,2′-imidazol]-4′-amine] | 204
6 | CC#Cc1cncc(-c2ccc3c(c2)C2(CCC3)N=C(C)C(N)=N2)c1 (stereo not drawn) [Example 53, 5-Methyl-7′-(5-(prop-1-ynyl)pyridin-3-yl)-3′,4′-dihydro-2′H-spiro[imidazole-2,1′-naphthalen]-4-amine] | 21
7 | CC1=NC2(N=C1N)c1cc(-c3cncc(Cl)c3)ccc1CC21CCC1 (stereo not drawn) [Example 55, 6′-(5-Chloropyridin-3-yl)-5″-methyl-3′H-dispiro[cyclobutane-1,2′-indene-1′,2″-imidazol]-4″-amine] | 118
8 | CC#Cc1cncc(-c2ccc3c(c2)C2(N=C(C)C(N)=N2)C2(CCC2)C3)c1 (stereo not drawn) [Example 56, 5″-Methyl-6′-[5-(prop-1-yn-1-yl)pyridin-3-yl]-3′H-dispiro[cyclobutane-1,2′-indene-1′,2″-imidazol]-4″-amine] | 24
9 | CC1=NC2(N=C1N)c1cc(C#CC3CC3)ccc1CC21CCC1 (stereo not drawn) [Example 58, 6′-(Cyclopropylethynyl)-5″-methyl-3′H-dispiro[cyclobutane-1,2′-indene-1′,2″-imidazol]-4″-amine] | 219
10 | CO[C@H]1CC[C@]2(CC1)Cc1ccc(-c3cnc(C)c(Cl)c3)cc1C21N=C(C)C(N)=N1 (stereo partly drawn) [Example 60, (1r,4r)-6′-(5-Chloro-6-methylpyridin-3-yl)-4-methoxy-5″-methyl-3′H-dispiro[cyclohexane-1,2′-indene-1′,2″-imidazol]-4″-amine] | 8.7
11 | CO[C@H]1CC[C@]2(CC1)Cc1ccc(-c3cnc(C)c(Cl)c3)cc1[C@@]21N=C(C)C(N)=N1 [Example 61, (1r,1′R,4R)-6′-(5-Chloro-6-methylpyridin-3-yl)-4-methoxy-5″-methyl-3′H-dispiro[cyclohexane-1,2′-indene-1′,2″-imidazol]-4″-amine] | 3.1
12 | CO[C@H]1CC[C@]2(CC1)Cc1ccc(-c3cc(Cl)cnc3C)cc1C21N=C(C)C(N)=N1 (stereo partly drawn) [Example 62, (1r,4r)-6′-(5-Chloro-2-methylpyridin-3-yl)-4-methoxy-5″-methyl-3′H-dispiro[cyclohexane-1,2′-indene-1′,2″-imidazol]-4″-amine] | 8.6
13 | CCC1=NC2(N=C1N)c1cc(-c3cncc(Cl)c3)ccc1C[C@]21CC[C@@H](OC)CC1 (stereo partly drawn) [Example 65, (1r,4r)-6′-(5-Chloropyridin-3-yl)-5-ethyl-4-methoxy-3′H-dispiro[cyclohexane-1,2′-indene-1′,2″-imidazol]-4″-amine] | 3.4
14 | CC#Cc1cncc(-c2ccc3c(c2)C2(N=C(N)C(CC)=N2)[C@]2(CC[C@H](OC)CC2)C3)c1 (stereo partly drawn) [Example 67, (1r,4r)-5″-Ethyl-4-methoxy-6′-[5-(prop-1-yn-1-yl)pyridin-3-yl]-3′H-dispiro[cyclohexane-1,2′-indene-1′,2″-imidazol]-4″-amine] | 0.81
15 | CCC1=NC2(N=C1N)c1cc(-c3cccc(C#N)c3)ccc1C[C@]21CC[C@@H](OC)CC1 (stereo partly drawn) [Example 70, 3-[(1r,4r)-4″-amino-5″-ethyl-4-methoxy-3′H-dispiro[cyclohexane-1,2′-indene-1′,2″-imidazol]-6′-yl]benzonitrile] | 13
16 | CO[C@H]1CC[C@]2(CC1)Cc1ccc(-c3cc(C)cc(C#N)c3)cc1C21N=C(C)C(N)=N1 (stereo partly drawn) [Example 74, 3-[(1r,4r)-4″-Amino-4-methoxy-5″-methyl-3′H-dispiro[cyclohexane-1,2′-indene-1′,2″-imidazol]-6′-yl]-5-methylbenzonitrile] | 2.1

The remaining lines, values ahead:

Row | IC50 [nM] | Compound
17 | 109 | CC1=NC2(N=C1N)c1cc(-c3cncc(Cl)c3)ccc1CC21CCC(F)(F)CC1 (stereo not drawn) [Example 28c, 6′-(5-Chloropyridin-3-yl)-4,4-difluoro-5″-methyl-3′H-dispiro[cyclohexane-1,2′-indene-1′,2″-imidazol]-4″-amine]
18 | 18 | CC#Cc1cncc(-c2ccc3c(c2)C2(N=C(C)C(N)=N2)C2(CCC(F)(F)CC2)C3)c1 (stereo not drawn) [Example 28h, 4,4-Difluoro-5″-methyl-6′-[5-(prop-1-yn-1-yl)pyridin-3-yl]-3′H-dispiro[cyclohexane-1,2′-indene-1′,2″-imidazol]-4″-amine]

Same assay, conditions: Homo sapiens, compounds incubated 17 h, MSD detection

Row | Compound | IC50 [nM]
19 | COC1CCC2(CC1)Oc1ccc(Br)cc1C21N=C(C)C(N)=N1 (stereo not drawn) [Example 29, 5′-bromo-4-methoxy-5″-methyldispiro[cyclohexane-1,2′-[1]benzofuran-3′,2″-imidazol]-4″-amine] | 848
20 | CC1=NC2(CCCc3ccc(-c4cncc(Cl)c4)cc32)N=C1N (stereo not drawn) [Example 52, 7′-(5-Chloropyridin-3-yl)-5-methyl-3′,4′-dihydro-2′H-spiro[imidazole-2,1′-naphthalen]-4-amine] | 91
21 | CC#Cc1cncc(-c2ccc3c(c2)C2(N=C(C)C(N)=N2)[C@]2(CC[C@H](OC)CC2)C3)c1C (stereo partly drawn) [Example 63, (1r,4r)-4-Methoxy-5″-methyl-6′-[4-methyl-5-(prop-1-yn-1-yl)pyridin-3-yl]-3′H-dispiro[cyclohexane-1,2′-indene-1′,2″-imidazol]-4″-amine] | 29
22 | CCC1=NC2(N=C1N)c1cc(Br)ccc1C[C@]21CC[C@@H](OC)CC1 (stereo partly drawn) [Example 64, (1r,4r)-6′-Bromo-5″-ethyl-4-methoxy-3′H-dispiro[cyclohexane-1,2′-indene-1′,2″-imidazol]-4″-amine] | 125
23 | CCC1=NC2(N=C1N)c1cc(-c3cncc(C#N)c3)ccc1C[C@]21CC[C@@H](OC)CC1 (stereo partly drawn) [Example 69, 5-[(1r,4r)-4″-Amino-5″-ethyl-4-methoxy-3′H-dispiro[cyclohexane-1,2′-indene-1′,2″-imidazol]-6′-yl]pyridine-3-carbonitrile] | 10
24 | CC#Cc1cncc(-c2ccc3c(c2)[C@@]2(N=C(C)C(N)=N2)[C@]2(CC[C@H](O)CC2)C3)c1 [Example 73, (1r,1′R,4R)-4″-Amino-5″-methyl-6′-[5-(prop-1-yn-1-yl)pyridin-3-yl]-3′H-dispiro[cyclohexane-1,2′-indene-1′,2″-imidazol]-4-ol] | 1

Results, then the compound that gave them:

Row | IC50 [nM] | Compound
25 | 29 | CO[C@H]1CC[C@]2(CC1)Cc1ccc(NC(=O)c3ccc(F)cn3)cc1C21N=C(C)C(N)=N1 (stereo partly drawn) [Example 20x, N-[(1r,4r)-4″-Amino-4-methoxy-5″-methyl-3′H-dispiro[cyclohexane-1,2′-indene-1′,2″-imidazol]-6′-yl]-5-fluoropyridine-2-carboxamide]
26 | 1.2 | CC#Cc1cc(-c2ccc3c(c2)C2(N=C(C)C(N)=N2)[C@]2(CC[C@H](OC)CC2)C3)ccn1 (stereo partly drawn) [Example 20y, (1r,4r)-4-Methoxy-5″-methyl-6′-[2-(prop-1-yn-1-yl)pyridin-4-yl]-3′H-dispiro[cyclohexane-1,2′-indene-1′,2″-imidazol]-4″-amine]
27 | 53 | CC1=NC2(N=C1N)c1cc(-c3cccc(Cl)c3)ccc1CC21CCOCC1 (stereo not drawn) [Example 26a, 6′-(3-Chlorophenyl)-5-methyl-2″,3″,5″,6″-tetrahydro-3′H-dispiro[imidazole-2,1′-indene-2′,4″-pyran]-4-amine]
28 | 140 | CC1=NC2(N=C1N)c1cc(-c3ccc(F)c(Cl)c3)ccc1CC21CCOCC1 (stereo not drawn) [Example 26c, 6′-(3-Chloro-4-fluorophenyl)-5-methyl-2″,3″,5″,6″-tetrahydro-3′H-dispiro[imidazole-2,1′-indene-2′,4″-pyran]-4-amine]
29 | 89 | CC1=NC2(N=C1N)c1cc(NC(=O)c3ccc(Cl)cn3)ccc1CC21CCC(F)(F)CC1 (stereo not drawn) [Example 28d, N-(4″-Amino-4,4-difluoro-5″-methyl-3′H-dispiro[cyclohexane-1,2′-indene-1′,2″-imidazol]-6′-yl)-5-chloropyridine-2-carboxamide]
30 | 97 | COC1CCC2(CC1)Oc1ccc(-c3cncc(Cl)c3)cc1C21N=C(C)C(N)=N1 (stereo not drawn) [Example 30d, 5′-(5-Chloropyridin-3-yl)-4-methoxy-5′-methyldispiro[cyclohexane-1,2′-[1]benzofuran-3′,2″-imidazol]-4″-amine]
